Measurements: PubChem BioAssay (NCI)
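Each compound was tested at five concentrations against cells in 96-well plates for 48 hours. GI50 = concentration required for 50% inhibition of growth. TGI: total growth inhibition.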

Tested on: A549 NSCLC
Assay: inhibition of tumour cell growth, NCI panel, 48 h

Question: For `N.N.N.N.O=C([O-])CCl.O=C([O-])CCl.[Co+3].[O-][Cl+3]([O-])([O-])[O-]`, which GI50 is on record?
Answer: > 100 µM

Question: What about the TGI of the same molecule?
Answer: > 100 µM

Question: `COC(=O)C1=C(OC(=O)/C(=C/c2ccc(Cl)cc2)c2ccc(Cl)cc2)C(C(=O)OC)[C@@]2(O)[C@@H](C(=O)OC)[C@H](C)C[C@@H]1[C@@H]2C(=O)OC` (some centres not stated) was tested. Which TGI did it give?
Answer: > 87.7 µM

Question: With `CC(C)CCC1CC2C(=O)N(c3ccccc3)C(=O)C2c2[nH]c3ccccc3c21` (configuration not stated) as the molecule, how does the TGI read?
Answer: 17.7 µM

Question: How did the TGI turn out when `CCCCCCCCCCCCCC(=O)OCC(C[As](=O)(O)O)OC(=O)CCCCCCCCCCCCC` (configuration not stated) was run?
Answer: > 100 µM

Question: With `O=C(CCN(C(=O)O)S(=O)(=O)c1ccc(NC(=O)c2ccccc2)cc1)Nc1ccccc1` as the molecule, how does the TGI read?
Answer: > 46.4 µM

Question: For `N#CN/C(N)=N/CO`, which TGI is on record?
Answer: > 100 µM

Tested on: HOP-18 NSCLC
Assay: inhibition of tumour cell growth, NCI panel, 48 h

Question: Which TGI does the source give for `CC(C)CCC1CC2C(=O)N(c3ccccc3)C(=O)C2c2[nH]c3ccccc3c21` (configuration not stated) here?
Answer: 21.6 µM

Question: `CCCCCCCCCCCCCC(=O)OCC(C[As](=O)(O)O)OC(=O)CCCCCCCCCCCCC` (configuration not stated) was tested. Which TGI did it give?
Answer: > 100 µM

Question: `O=C(CCN(C(=O)O)S(=O)(=O)c1ccc(NC(=O)c2ccccc2)cc1)Nc1ccccc1` was tested. Which TGI did it give?
Answer: > 100 µM

Question: With `N#CN/C(N)=N/CO` as the molecule, how does the TGI read?
Answer: > 100 µM

Tested on: SK-MEL-2 melanoma
Assay: inhibition of tumour cell growth, NCI panel, 48 h

Question: Which results are given for `N.N.N.N.O=C([O-])CCl.O=C([O-])CCl.[Co+3].[O-][Cl+3]([O-])([O-])[O-]`?
Answer: GI50: > 100 µM; TGI: > 100 µM

Question: `COC(=O)C1=C(OC(=O)/C(=C/c2ccc(Cl)cc2)c2ccc(Cl)cc2)C(C(=O)OC)[C@@]2(O)[C@@H](C(=O)OC)[C@H](C)C[C@@H]1[C@@H]2C(=O)OC` (some centres not stated) was tested. Which TGI did it give?
Answer: > 100 µM

Question: `CCCCCCCCCCCCCC(=O)OCC(C[As](=O)(O)O)OC(=O)CCCCCCCCCCCCC` (configuration not stated) was tested. Which TGI did it give?
Answer: > 100 µM

Question: Which TGI does the source give for `O=C(CCN(C(=O)O)S(=O)(=O)c1ccc(NC(=O)c2ccccc2)cc1)Nc1ccccc1` here?
Answer: > 100 µM

Question: How did the TGI turn out when `N#CN/C(N)=N/CO` was run?
Answer: > 100 µM

Tested on: HOP-62 NSCLC
Assay: inhibition of tumour cell growth, NCI panel, 48 h

Question: How did the GI50 turn out when `N.N.N.N.O=C([O-])CCl.O=C([O-])CCl.[Co+3].[O-][Cl+3]([O-])([O-])[O-]` was run?
Answer: > 100 µM

Question: What about the TGI of the same molecule?
Answer: > 100 µM

Question: How did the TGI turn out when `COC(=O)C1=C(OC(=O)/C(=C/c2ccc(Cl)cc2)c2ccc(Cl)cc2)C(C(=O)OC)[C@@]2(O)[C@@H](C(=O)OC)[C@H](C)C[C@@H]1[C@@H]2C(=O)OC` (some centres not stated) was run?
Answer: > 100 µM

Question: `CCCCCCCCCCCCCC(=O)OCC(C[As](=O)(O)O)OC(=O)CCCCCCCCCCCCC` (configuration not stated) was tested. Which TGI did it give?
Answer: > 100 µM

Question: For `O=C(CCN(C(=O)O)S(=O)(=O)c1ccc(NC(=O)c2ccccc2)cc1)Nc1ccccc1`, which TGI is on record?
Answer: > 100 µM

Question: For `N#CN/C(N)=N/CO`, which TGI is on record?
Answer: > 100 µM

Tested on: SNB-19 CNS
Assay: inhibition of tumour cell growth, NCI panel, 48 h

Question: How did the GI50 turn out when `N.N.N.N.O=C([O-])CCl.O=C([O-])CCl.[Co+3].[O-][Cl+3]([O-])([O-])[O-]` was run?
Answer: > 100 µM

Question: And the TGI?
Answer: > 100 µM

Question: How did the TGI turn out when `COC(=O)C1=C(OC(=O)/C(=C/c2ccc(Cl)cc2)c2ccc(Cl)cc2)C(C(=O)OC)[C@@]2(O)[C@@H](C(=O)OC)[C@H](C)C[C@@H]1[C@@H]2C(=O)OC` (some centres not stated) was run?
Answer: > 100 µM

Question: `CC(C)CCC1CC2C(=O)N(c3ccccc3)C(=O)C2c2[nH]c3ccccc3c21` (configuration not stated) was tested. Which TGI did it give?
Answer: 20.6 µM

Question: `CCCCCCCCCCCCCC(=O)OCC(C[As](=O)(O)O)OC(=O)CCCCCCCCCCCCC` (configuration not stated) was tested. Which TGI did it give?
Answer: > 100 µM

Question: `O=C(CCN(C(=O)O)S(=O)(=O)c1ccc(NC(=O)c2ccccc2)cc1)Nc1ccccc1` was tested. Which TGI did it give?
Answer: > 100 µM

Question: `N#CN/C(N)=N/CO` was tested. Which TGI did it give?
Answer: > 100 µM

Tested on: IGROV1 ovarian
Assay: inhibition of tumour cell growth, NCI panel, 48 h

Question: How did the GI50 turn out when `N.N.N.N.O=C([O-])CCl.O=C([O-])CCl.[Co+3].[O-][Cl+3]([O-])([O-])[O-]` was run?
Answer: > 100 µM

Question: And the TGI?
Answer: > 100 µM

Question: Which TGI does the source give for `COC(=O)C1=C(OC(=O)/C(=C/c2ccc(Cl)cc2)c2ccc(Cl)cc2)C(C(=O)OC)[C@@]2(O)[C@@H](C(=O)OC)[C@H](C)C[C@@H]1[C@@H]2C(=O)OC` (some centres not stated) here?
Answer: > 100 µM

Question: `CC(C)CCC1CC2C(=O)N(c3ccccc3)C(=O)C2c2[nH]c3ccccc3c21` (configuration not stated) was tested. Which TGI did it give?
Answer: 28.4 µM

Question: For `CCCCCCCCCCCCCC(=O)OCC(C[As](=O)(O)O)OC(=O)CCCCCCCCCCCCC` (configuration not stated), which TGI is on record?
Answer: > 100 µM

Question: For `O=C(CCN(C(=O)O)S(=O)(=O)c1ccc(NC(=O)c2ccccc2)cc1)Nc1ccccc1`, which TGI is on record?
Answer: > 100 µM

Question: For `N#CN/C(N)=N/CO`, which TGI is on record?
Answer: > 100 µM

Tested on: T-47D breast
Assay: inhibition of tumour cell growth, NCI panel, 48 h

Question: `COC(=O)C1=C(OC(=O)/C(=C/c2ccc(Cl)cc2)c2ccc(Cl)cc2)C(C(=O)OC)[C@@]2(O)[C@@H](C(=O)OC)[C@H](C)C[C@@H]1[C@@H]2C(=O)OC` (some centres not stated) was tested. Which TGI did it give?
Answer: > 100 µM

Tested on: DMS 273 small cell lung
Assay: inhibition of tumour cell growth, NCI panel, 48 h

Question: With `CC(C)CCC1CC2C(=O)N(c3ccccc3)C(=O)C2c2[nH]c3ccccc3c21` (configuration not stated) as the molecule, how does the TGI read?
Answer: 2.72 µM

Question: Which TGI does the source give for `CCCCCCCCCCCCCC(=O)OCC(C[As](=O)(O)O)OC(=O)CCCCCCCCCCCCC` (configuration not stated) here?
Answer: > 100 µM

Question: How did the TGI turn out when `O=C(CCN(C(=O)O)S(=O)(=O)c1ccc(NC(=O)c2ccccc2)cc1)Nc1ccccc1` was run?
Answer: > 82.4 µM

Question: Which TGI does the source give for `N#CN/C(N)=N/CO` here?
Answer: > 100 µM

Tested on: EKVX NSCLC
Assay: inhibition of tumour cell growth, NCI panel, 48 h

Question: How did the GI50 turn out when `N.N.N.N.O=C([O-])CCl.O=C([O-])CCl.[Co+3].[O-][Cl+3]([O-])([O-])[O-]` was run?
Answer: > 100 µM

Question: And the TGI?
Answer: > 100 µM

Question: Which TGI does the source give for `COC(=O)C1=C(OC(=O)/C(=C/c2ccc(Cl)cc2)c2ccc(Cl)cc2)C(C(=O)OC)[C@@]2(O)[C@@H](C(=O)OC)[C@H](C)C[C@@H]1[C@@H]2C(=O)OC` (some centres not stated) here?
Answer: > 100 µM

Question: For `CC(C)CCC1CC2C(=O)N(c3ccccc3)C(=O)C2c2[nH]c3ccccc3c21` (configuration not stated), which TGI is on record?
Answer: 11.6 µM

Question: `CCCCCCCCCCCCCC(=O)OCC(C[As](=O)(O)O)OC(=O)CCCCCCCCCCCCC` (configuration not stated) was tested. Which TGI did it give?
Answer: > 100 µM
